For one experiment, the system named is SH-SY5Y. Description: Antiproliferative activity against human SH-SY5Y cells after 48 hrs by MTS reduction assay. In kind it is functional, cell-based.
The subject of a further experiment is HEK293. Description: Antiproliferative activity against human HEK293 cells after 48 hrs by MTS reduction assay. The experiment is classed as cell-based. The note with it: HEK293, 48 h. On the technique in general: Tetrazolium dyes change colour on reduction, which living cells bring about.
For experiment [1], the target named is Cyclin-dependent kinase 5/CDK5 activator 1 (Homo sapiens, UniProt Q00535).
Description: Inhibition of human recombinant CDK5/p25 expressed in Escherichia coli
A short description of experiment [2]: Inhibition of starfish oocytes CDK1/cyclin B. Conditions: oocyte. More on the design: species or system Marthasterias glacialis.
The next experiment deals with CDK9/cyclin T1 (Homo sapiens, UniProt P50750). Put plainly: Inhibition of human recombinant CDK9/cyclin T expressed in baculovirus-infected insect cells.
The target in experiment [3] is Cyclin-dependent kinase 2 (Homo sapiens, UniProt P24941). Description: Inhibition of human recombinant CDK2/cyclin A expressed in baculovirus-infected insect cells.
The target of experiment [4] is Cyclin-dependent kinase 7/ cyclin H (Homo sapiens, UniProt P50613). Put plainly: Inhibition of human recombinant CDK7/cyclin H expressed in baculovirus-infected insect cells.

pIC50: −log10 of the molar value.

For orientation: pIC50 means the negative decadic logarithm of the IC50, by convention in mol/L.

Chain of Cyclin-dependent kinase 5/CDK5 activator 1 (Q00535 whole entry): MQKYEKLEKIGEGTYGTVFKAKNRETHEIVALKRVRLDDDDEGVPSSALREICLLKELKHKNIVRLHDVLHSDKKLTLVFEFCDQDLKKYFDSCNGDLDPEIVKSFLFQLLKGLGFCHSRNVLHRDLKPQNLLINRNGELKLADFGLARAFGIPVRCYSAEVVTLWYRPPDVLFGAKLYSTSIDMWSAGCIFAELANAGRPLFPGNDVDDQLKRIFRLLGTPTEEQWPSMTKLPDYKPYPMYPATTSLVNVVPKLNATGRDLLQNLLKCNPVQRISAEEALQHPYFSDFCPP
Chain of Cyclin-dependent kinase 5/CDK5 activator 1 (Q15078 whole entry, further chain): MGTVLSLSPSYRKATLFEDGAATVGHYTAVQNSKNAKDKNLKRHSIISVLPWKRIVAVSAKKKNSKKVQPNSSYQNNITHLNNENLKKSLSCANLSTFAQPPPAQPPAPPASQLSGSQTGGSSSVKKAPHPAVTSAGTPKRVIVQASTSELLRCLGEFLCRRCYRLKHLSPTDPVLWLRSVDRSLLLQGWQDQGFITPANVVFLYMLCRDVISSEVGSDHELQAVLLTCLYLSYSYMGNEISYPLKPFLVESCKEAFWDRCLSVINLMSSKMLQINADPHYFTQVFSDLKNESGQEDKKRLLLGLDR
Chain of Cyclin-dependent kinase 7/ cyclin H (P51946 whole entry): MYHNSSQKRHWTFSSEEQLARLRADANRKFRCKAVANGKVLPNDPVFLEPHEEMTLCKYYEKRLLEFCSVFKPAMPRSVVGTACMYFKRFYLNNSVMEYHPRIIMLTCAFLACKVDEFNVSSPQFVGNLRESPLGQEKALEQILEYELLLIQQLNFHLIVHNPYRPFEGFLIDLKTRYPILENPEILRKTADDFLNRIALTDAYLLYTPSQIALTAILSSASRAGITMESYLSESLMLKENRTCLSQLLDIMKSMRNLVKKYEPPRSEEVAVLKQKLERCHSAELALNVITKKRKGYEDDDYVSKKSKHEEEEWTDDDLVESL
Chain of Cyclin-dependent kinase 7/ cyclin H (P50613 whole entry): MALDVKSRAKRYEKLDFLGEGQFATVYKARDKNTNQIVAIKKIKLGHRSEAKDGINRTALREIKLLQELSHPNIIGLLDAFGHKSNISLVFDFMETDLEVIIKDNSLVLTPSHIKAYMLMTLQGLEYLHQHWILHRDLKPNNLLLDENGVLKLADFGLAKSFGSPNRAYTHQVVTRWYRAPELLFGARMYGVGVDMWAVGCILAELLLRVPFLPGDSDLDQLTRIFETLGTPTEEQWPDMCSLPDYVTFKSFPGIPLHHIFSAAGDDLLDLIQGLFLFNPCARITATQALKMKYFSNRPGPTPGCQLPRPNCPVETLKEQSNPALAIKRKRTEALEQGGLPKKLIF
Chain of CDK9/cyclin T1 (O60563 whole entry): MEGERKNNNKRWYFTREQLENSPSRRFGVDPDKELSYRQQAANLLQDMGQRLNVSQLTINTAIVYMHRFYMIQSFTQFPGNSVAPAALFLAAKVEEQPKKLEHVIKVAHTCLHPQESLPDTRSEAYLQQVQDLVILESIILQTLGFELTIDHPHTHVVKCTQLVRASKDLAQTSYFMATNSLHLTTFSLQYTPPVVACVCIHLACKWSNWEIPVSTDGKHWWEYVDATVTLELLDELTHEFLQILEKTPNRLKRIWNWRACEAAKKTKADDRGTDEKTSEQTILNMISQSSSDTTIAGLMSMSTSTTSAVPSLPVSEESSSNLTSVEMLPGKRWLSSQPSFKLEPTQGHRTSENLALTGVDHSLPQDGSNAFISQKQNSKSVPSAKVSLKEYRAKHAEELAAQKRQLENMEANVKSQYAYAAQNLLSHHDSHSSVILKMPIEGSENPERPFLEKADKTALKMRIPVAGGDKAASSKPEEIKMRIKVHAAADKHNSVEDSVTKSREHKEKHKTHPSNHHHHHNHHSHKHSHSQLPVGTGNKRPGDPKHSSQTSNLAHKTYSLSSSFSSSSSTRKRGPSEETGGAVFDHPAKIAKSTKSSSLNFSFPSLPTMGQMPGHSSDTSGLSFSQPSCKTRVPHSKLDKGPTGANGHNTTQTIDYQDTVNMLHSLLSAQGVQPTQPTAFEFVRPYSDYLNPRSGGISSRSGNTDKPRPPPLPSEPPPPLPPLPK
Chain of CDK9/cyclin T1 (P50750 whole entry): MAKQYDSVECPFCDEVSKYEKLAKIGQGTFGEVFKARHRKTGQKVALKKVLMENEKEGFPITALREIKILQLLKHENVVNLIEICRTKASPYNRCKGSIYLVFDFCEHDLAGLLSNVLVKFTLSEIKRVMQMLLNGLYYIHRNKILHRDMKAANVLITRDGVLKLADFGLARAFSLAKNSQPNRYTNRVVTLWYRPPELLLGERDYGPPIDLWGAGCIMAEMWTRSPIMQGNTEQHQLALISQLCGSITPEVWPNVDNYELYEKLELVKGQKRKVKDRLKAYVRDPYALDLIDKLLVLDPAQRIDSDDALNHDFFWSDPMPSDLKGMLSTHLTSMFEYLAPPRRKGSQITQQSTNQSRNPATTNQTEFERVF

Consider `CC[C@@H](CO)Nc1nc(NCc2ccccc2)n2ncc(C(C)C)c2n1`, for which the negative-log IC50 (pIC50) is 5.70 with SH-SY5Y, 5.14 with HEK293 and 6.89 in experiment [1].

For `CC[C@H](CO)Nc1nc(NCc2ccccc2)c2ncc(C(C)C)n2n1`, the pIC50 in experiment [2] is 6.40; on CDK9/cyclin T1, 6.70; in the experiment with SH-SY5Y, 4.81; in experiment [3], 6.66; in experiment [4] it was 6.22; in the experiment with HEK293, 4.57. Also, the pIC50 in experiment [1] is 6.49.
